Laboratory results as given in US20070099915A1, “INHIBITORS OF THE HIV INTEGRASE ENZYME” (PFIZER INC., priority 2005, published 2007).
Read-outs that look alike come from different tables or passages of the source.

What was measured:
[1] = test system: HIV-1 RF virus in CEM-SS cells; assay: HIV-1 cell protection assay (XTT dye reduction); type: cell-based
Protocol: Six days later, 50 μl of XTT solution (1 mg/ml XTT tetrazolium and 20 nM phenazine methosulfate) were added to the wells and the plates were reincubated for four hours. Viability, as determined by the amount of XTT formazan produced, was quantified spectrophotometrically by absorbance at 450 nm.
Data from CPE assays were expressed as the percent of formazan produced in compound-treated cells compared to formazan produced in wells of uninfected, compound-free cells. […] The 50% cytotoxicity concentration (CC50) was calculated as the concentration of compound that decreased the percentage of formazan produced in uninfected, compound-treated cells to 50% of that produced in uninfected, compound-free cells. The therapeutic index was calculated by dividing the cytotoxicity (CC50) by the antiviral activity (EC50).

[2] = molecular target: T1, Full-length wild type HIV-1 integrase (SF1) (Human immunodeficiency virus type 1 group M subtype B, UniProt P04585); assay: Integrase strand-transfer scintillation proximity assay; type: biochemical
T1 construct: made in house; host or cells: E. coli BL21 (DE3)
Excerpt: The annealed product represents preprocessed viral ds-DNA derived from the LTR U5 sequence of the viral genome. A ds-DNA control to test for non-specific interactions was made using a 3′ di-deoxy derivative of oligonucleotide #1 annealed to oligonucleotide #2. The CA overhang at the 5′ end of the non-biotinylated strand of the ds-DNA was created artificially by using a complimentary DNA oligonucleotide shortened by 2 base pairs. This configuration eliminates the requisite 3′ processing step of the integrase enzyme prior to the strand-transfer mechanism.
The annealed product had overhanging 3′ ends of poly(dA). […] The radiolabeled product was purified using a NENSORB cartridge and stored in stabilized aqueous solution (PerkinElmer).
Reagents: Streptavidin-coated polyvinyltoluene (PVT) SPA beads were purchased from Amersham Biosciences (Piscataway, N.J.). Cesium chloride was purchased from Shelton Scientific, Inc. (Shelton, Conn.). White, polystyrene, flat-bottom, non-binding surface, 96-well plates were purchased from Corning. All other buffer components were purchased from Sigma (St. Louis, Mo.) unless otherwise indicated.
Enzyme Construction: Full-length wild type HIV-1 integrase (SF1) sequence (amino acids 1-289) was constructed in a pET24a vector (Novagen, Madison, Wis.).
Enzyme Purification: Full length wild-type HIV Integrase was expressed in E. coli BL21 (DE3) cells and induced with 1 mM isopropyl-1 thio-β-D-galactopyranoside (IPTG) when cells reached an optical density between 0.8-1.0 at 600 nm. Cells were lysed by microfluidation in 50 mM HEPES pH 7.0, 75 mM NaCl, 5 mM DTT, 1 mM 4-(2-Aminoethyl)benzenesulfonylfluoride HCl (AEBSF). Lysate was then centrifuged 20 minutes at 11 k rpm in GSA rotor in Sorvall RC-5B at 4° C. Supernant was discarded and pellet resuspended in 50 mM HEPES pH 7.0, 750 mM NaCl, 5 mM DTT, 1 mM AEBSF and homogenized in a 40 mL Dounce homogenizer for 20 minutes on ice. Homogenate was then centrifuged 20 minutes at 11 k rpm in SS34 rotor in Sorvall RC-5B at 4° C. Supernant was discarded and pellet resuspended in 50 mM HEPES pH 7.0, 750 mM NaCl, 25 mM CHAPS, 5 mM DTT, 1 mM AEBSF. Preparation was then centrifuged 20 minutes at 11 k rpm in SS34 rotor in Sorvall RC-5B at 4° C.
Supernant was then diluted 1:1 with 50 mM HEPES pH 7.0, 25 mM CHAPS, 1 mM DTT, 1 mM AEBSF and loaded onto a Q-Sepharose column pre-equilibrated with 50 mM HEPES, pH 7.0, 375 mM NaCl, 25 mM CHAPS, 1 mM DTT, 1 mM AEBSF. The flow through peak was collected and NaCl diluted to 0.1 M with 50 mM HEPES pH 7.0, 25 mM CHAPS, 1 mM DTT, 0.5 mM AEBSF and loaded onto a SP-Sepharose column pre-equilibrated with 50 mM HEPES pH 7.0, 100 mM NaCl, 25 mM CHAPS, 1 mM DTT, 0.5 mM AEBSF. After washing the column with the equilibration buffer, a 100 to 400 mM NaCl gradient was run. The eluted integrase was concentrated and run on a S-300 gel diffusion column using 50 mM HEPES pH 7.0, 500 mM NaCl, 25 mM CHAPS, 1 mM DTT, 0.5 mM AEBSF. […] All columns were run in a 4° C. cold room.
Viral DNA Bead Preparation: Streptavidin-coated SPA beads were suspended to 20 mg/mL in 25 mM 3-morpholinopropanesulfonic acid (MOPS) (pH 7.2) and 1.0% NaN3. Biotinylated viral DNA was bound to the hydrated SPA beads in a batch process by combining […] of ds-DNA to 1 mg of suspended SPA beads (10 μL of 50 μM viral DNA to 1 mL of 20 mg/mL SPA beads). The mixture was incubated at 22° C. for a minimum of 20 min. with occasional mixing followed by centrifugation at 2500 rpm for 10 min.

[3] = Human immunodeficiency virus 1, CEM-SS, 144 h
[4] = strand-transfer SPA, 246 nM integrase, 50 nM host DNA, 37° C., 50 min, read-out: IC50
[5] = Human immunodeficiency virus 1, 144 h, RF strain of HIV-1, CEM-SS cells, XTT read-out after six days, read-out: EC50

Row | SMILES | EC50 [1, 3] [nM] | IC50 [2, 4] [nM] | EC50 [1, 5] [nM] | IC50 [2] [nM]
1 | CN(C(=O)c1cn(Cc2ccc(F)cc2)c2cnc3c(c12)CCN(O)C3=O)C1CCOCC1 [Example 20, 3-(4-fluorobenzyl)-7-hydroxy-N-methyl-6-oxo-N-(tetrahydro-2H-pyran-4-yl)-6,7,8,9-tetrahydro-3H-pyrrolo[2,3-c]-1,7-naphthyridine-1-carboxamide] | 52 | 19 |  | 
2 | CN(C1CCCC1)S(=O)(=O)c1cn(Cc2ccc(F)cc2)c2cnc3c(c12)CCN(O)C3=O [Example 21, N-cyclopentyl-3-(4-fluorobenzyl)-7-hydroxy-N-methyl-6-oxo-6,7,8,9-tetrahydro-3H-pyrrolo[2,3-c]-1,7-naphthyridine-1-sulfonamide] |  | 905 | 120 | 
3 | COCCOCc1cn(Cc2ccc(F)cc2)c2cnc3c(c12)CCN(O)C3=O [Example 22, 3-(4-fluorobenzyl)-7-hydroxy-1-[(2-methoxyethoxy)methyl]-3,7,8,9-tetrahydro-6H-pyrrolo[2,3-c]-1,7-naphthyridin-6-one] |  | 14 | 1.5 | 
4 | O=C1c2ncc3c(c(CN4CCCC4)cn3Cc3ccc(F)cc3)c2CCN1O [Example 23, 3-(4-fluorobenzyl)-7-hydroxy-1-(pyrrolidin-1-ylmethyl)-3,7,8,9-tetrahydro-6H-pyrrolo[2,3-c]-1,7-naphthyridin-6-one] | 4 |  |  | 27
5 | O=C1c2ncc3c(c(CO)cn3Cc3ccc(F)cc3)c2CCN1O [Example 25, 3-(4-fluorobenzyl)-7-hydroxy-1-(hydroxymethyl)-3,7,8,9-tetrahydro-6H-pyrrolo[2,3-c]-1,7-naphthyridin-6-one] | 3 |  |  | 12
6 | O=c1c2ncc3c(c(CO)cn3Cc3ccc(F)cc3)c2ccn1O [Example 26, 3-(4-fluorobenzyl)-7-hydroxy-1-(hydroxymethyl)-3H-pyrrolo[2,3-c][1,7]naphthyridin-6(7H)-one] |  | 38 | 3 | 
7 | CN1CCN(Cc2cn(Cc3ccc(F)cc3)c3cnc4c(c23)CCN(O)C4=O)CC1 [Example 29, 3-(4-fluorobenzyl)-7-hydroxy-1-[(4-methylpiperazin-1-yl)methyl]-3,7,8,9-tetrahydro-6H-pyrrolo[2,3-c]-1,7-naphthyridin-6-one] |  | 28 | 3 | 
8 | O=C1c2ncc3c(c(COC4CCOCC4)cn3Cc3ccc(F)cc3)c2CCN1O [Example 30, 3-(4-fluorobenzyl)-7-hydroxy-1-[(tetrahydro-2H-pyran-4-yloxy)methyl]-3,7,8,9-tetrahydro-6H-pyrrolo[2,3-c]-1,7-naphthyridin-6-one] |  | 42 | 5 | 
9 | CCOCCOCc1cn(Cc2ccc(F)cc2)c2cnc3c(c12)CCN(O)C3=O [Example 31, 1-[(2-ethoxyethoxy)methyl]-3-(4-fluorobenzyl)-7-hydroxy-3,7,8,9-tetrahydro-6H-pyrrolo[2,3-c]-1,7-naphthyridin-6-one] |  | 33 | 5 | 
10 | C[C@H](CO)NCc1cn(Cc2ccc(F)cc2)c2cnc3c(c12)CCN(O)C3=O [Example 33, 3-(4-fluorobenzyl)-7-hydroxy-1-({[(1R)-2-hydroxy-1-methylethyl]amino}methyl)-3,7,8,9-tetrahydro-6H-pyrrolo[2,3-c]-1,7-naphthyridin-6-one] |  | 21 | 13 | 
11 | CC(NCc1cn(Cc2ccc(F)cc2)c2cnc3c(=O)n(O)ccc3c12)c1ccc(Br)cc1 (stereo not shown) [Example 36, 1-({[1-(4-bromophenyl)ethyl]amino}methyl)-3-(4-fluorobenzyl)-7-hydroxy-3,7-dihydro-6H-pyrrolo[2,3-c]-1,7-naphthyridin-6-one] |  | 10 | 3 | 
12 | O=C1c2ncc3c(c(CN4CCCC(F)(F)C4)cn3Cc3ccc(F)cc3)c2CCN1O [Example 39] |  | 10.3 | 0.279 | 
13 | COCCN(Cc1cn(Cc2ccc(F)cc2)c2cnc3c(c12)CCN(O)C3=O)C(C)(C)C [Example 40, 1-{[tert-butyl(2-methoxyethyl)amino]methyl}-3-(4-fluorobenzyl)-7-hydroxy-3,7,8,9-tetrahydro-6H-pyrrolo[2,3-c]-1,7-naphthyridin-6-one] |  | 24.4 | 4.6 | 
14 | CN(C)C(=O)[C@@H]1CCCN1Cc1cn(Cc2ccc(F)cc2)c2cnc3c(c12)CCN(O)C3=O [Example 41, 1-{[3-(4-fluorobenzyl)-7-hydroxy-6-oxo-6,7,8,9-tetrahydro-3H-pyrrolo[2,3-c]-1,7-naphthyridin-1-yl]methyl}-N,N-dimethyl-L-prolinamide] |  | 28.1 | 29 | 
15 | Cc1cc2c(ncc3c2c(CN(C)C)cn3Cc2ccc(F)cc2)c(=O)n1O [Example 42, 1-[(dimethylamino)methyl]-3-(4-fluorobenzyl)-7-hydroxy-8-methyl-3,7-dihydro-6H-pyrrolo[2,3-c]-1,7-naphthyridin-6-one] |  | 8.1 | 0.43 | 
16 | Cc1cc2c(ncc3c2c(CN2CCOCC2)cn3Cc2ccc(F)cc2)c(=O)n1O [Example 43, 3-(4-fluorobenzyl)-7-hydroxy-8-methyl-1-(morpholin-4-ylmethyl)-3,7-dihydro-6H-pyrrolo[2,3-c]-1,7-naphthyridin-6-one] |  | 9.36 | 0.41 | 
17 | Cc1c(CN2CCOCC2)c2c(ncc3c2ccn3Cc2ccc(F)cc2)c(=O)n1O [Example 44, 3-(4-fluorobenzyl)-7-hydroxy-8-methyl-9-(morpholin-4-ylmethyl)-3,7-dihydro-6H-pyrrolo[2,3-c]-1,7-naphthyridin-6-one] |  |  | 0.45 | 9.07
18 | C[C@@H]1CN(Cc2cn(Cc3ccc(F)cc3)c3cnc4c(c23)CCN(O)C4=O)C[C@H](C)O1 [Example 45, 1-{[(2R,6S)-2,6-dimethylmorpholin-4-yl]methyl}-3-(4-fluorobenzyl)-7-hydroxy-3,7,8,9-tetrahydro-6H-pyrrolo[2,3-c]-1,7-naphthyridin-6-one] |  | 9.07 | 0.45 | 
19 | Cc1cc2c(ncc3c2c(CN2CCCC2)cn3Cc2ccc(F)cc2)c(=O)n1O [Example 46, 3-(4-fluorobenzyl)-7-hydroxy-8-methyl-1-(pyrrolidin-1-ylmethyl)-3,7-dihydro-6H-pyrrolo[2,3-c]-1,7-naphthyridin-6-one] |  | 8.35 | 1.1 | 
20 | Cc1cc2c(ncc3c2c(CO)cn3Cc2ccc(F)cc2)c(=O)n1O [Example 47, 3-(4-fluorobenzyl)-7-hydroxy-1-(hydroxymethyl)-8-methyl-3,7-dihydro-6H-pyrrolo[2,3-c]-1,7-naphthyridin-6-one] | 0.39 |  |  | 6
